Assay results published in patent US20030087906A1, “NITROGEN SUBSTITUTED BIARYL PURINE DERIVATIVES AS POTENT ANTIPROLIFERATIVE AGENTS” (priority 2001, published 2003).

Test system: implanted tumors
Assay: Efficacy study: delay in growth of implanted tumors, regressions, tumor-free survivors
Assay type: in vivo, athymic mice
Procedure: The following data in Table 9 summarize the in vivo properties of several compounds of the current invention. The protocol for the experiment is as follows. The dose-range finding study consists of four groups of three athymic mice each (four dose levels.) The compound is administered on the basis of individual animal body weight. The route is intraperitoneal (IP) and the treatment schedule is daily for 14 days (qd×14) or once every 4 days for 12 days (q4d×3).
The efficacy study consists of three compound-treated groups (six mice/group), a positive control-treated group (six mice), and a vehicle-treated control group of 12 mice. Test compounds were administered IP under the treatment schedules listed above (qd×14 or q4d×3), whereas the positive control agent (Taxol) was administered intravenously (IV) at a dosage level of 15 mg/kg/dose for five consecutive days (qd×5). All agents were administered on the basis of individual animal body weight. Treatment began when the implanted tumors were approximately 100 mg in size (range of 65 to 200 mg). The mice were observed daily for survival. Each tumor was measured by caliper in two dimensions and converted to tumor mass using the formula for a prolate ellipsoid (a×b^2/2) and assuming unit density. Tumor measurements and animal body weights were recorded twice weekly. Antitumor activity was assessed by the delay in tumor growth of the treated groups in comparison to the vehicle-treated control group, partial and complete regressions, and tumor-free survivors.

CC(C)n1cnc2c(NCc3ccc(-c4ccsc4)cc3)nc(N[C@H]3CC[C@H](N)CC3)nc21 [Compound 12]
T-C (0.27 mg/kg IP q4d × 3): 1.2 days | Tumor free/total (0.27 mg/kg IP q4d × 3): 0/6 | T-C (0.4 mg/kg IP q4d × 3): 0.2 days | Tumor free/total (0.4 mg/kg IP q4d × 3): 0/6 | T-C (0.6 mg/kg IP q4d × 3): 0.3 days | Tumor free/total (0.6 mg/kg IP q4d × 3): 0/6
